Experimental data reported in ChEMBL document CHEMBL5543066, “Dual COX-2/15-LOX inhibitors: A new avenue in the prevention of cancer” (Eur J Med Chem, 2023).

How the values were obtained:
Mononuclear cell line = experiment: Induction of apoptosis in human Mononuclear cell line assessed as early apoptosis at 10 uM incubated for 48 hrs by AnnexinV-FITC/PI staining based flow cytometry relative to control; assay type: functional
[1] = Inhibition of soybean 15-LOX by chemiluminescence based analysis; design: species or system Glycine max
HepG2 = experiment: Anticancer activity against human HepG2 cells assessed as cell viability measured after 72 hrs by MTT assay; assay type: functional, cell-based; details: HepG2, 72 h
Caco-2 = experiment: Antiproliferative activity against human Caco-2 cells assessed as reduction in cell growth incubated for 72 hrs by MTT assay; assay type: functional, cell-based; details: Caco-2, 72 h
PC-3 = experiment: Antiproliferative activity against human PC-3 cells assessed as reduction in cell growth incubated for 72 hrs by MTT assay; assay type: functional, cell-based; details: PC-3, 72 h
MCF7 = experiment: Antitumor activity against human MCF7 cells assessed as reduction in cell viability measured for 72 hrs by MTT assay; assay type: functional, cell-based; details: MCF7, 72 h
A549 = experiment: Anticancer activity against human A549 cells assessed as reduction in cell viability measured for 72 hrs by MTT assay; assay type: functional, cell-based; details: A549, 72 h
[2] = Inhibition of soybean 15-LOX colorimetric assay; design: species or system Glycine max
[3] = Inhibition of soybean 15-LOX; design: species or system Glycine max
[4] = molecular target: T1, Prostaglandin G/H synthase 2 (Homo sapiens, UniProt P35354); experiment: Inhibition of COX-2 (unknown origin) by Enzyme immune assay
T1 sequence (P35354 whole entry): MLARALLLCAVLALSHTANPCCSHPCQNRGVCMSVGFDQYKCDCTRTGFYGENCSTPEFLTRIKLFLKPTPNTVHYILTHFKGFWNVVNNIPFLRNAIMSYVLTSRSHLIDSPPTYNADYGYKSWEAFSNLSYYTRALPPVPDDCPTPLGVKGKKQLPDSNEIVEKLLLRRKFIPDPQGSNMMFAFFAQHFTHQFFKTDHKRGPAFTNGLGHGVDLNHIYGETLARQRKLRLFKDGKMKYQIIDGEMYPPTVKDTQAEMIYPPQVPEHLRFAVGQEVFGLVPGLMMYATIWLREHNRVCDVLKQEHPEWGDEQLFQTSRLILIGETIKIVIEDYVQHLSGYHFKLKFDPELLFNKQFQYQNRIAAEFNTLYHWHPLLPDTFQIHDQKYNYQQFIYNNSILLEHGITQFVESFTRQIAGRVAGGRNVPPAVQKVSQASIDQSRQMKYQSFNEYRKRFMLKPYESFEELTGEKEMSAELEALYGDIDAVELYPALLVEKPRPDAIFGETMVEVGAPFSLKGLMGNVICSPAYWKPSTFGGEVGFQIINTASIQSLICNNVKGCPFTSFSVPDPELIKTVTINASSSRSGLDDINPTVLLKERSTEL

[5] = molecular target: T1, Prostaglandin G/H synthase 2; experiment: Inhibition of human recombinant COX-2
[6] = Inhibition of soybean lipoxygenase; design: species or system Glycine max
Rattus norvegicus = experiment: Anti-inflammatory activity against carrageenan-induced paw edema in Wistar albino rat assessed as inhibition of paw edema at 50 mg/kg, sc administered for 14 days relative to control; assay type: functional; design: scale not given: the % may be the effect or the level left; details: time 14 day
[7] = Inhibition of soybean 15-LOX by spectrophotometric method; design: species or system Glycine max
[8] = molecular target: T1, Prostaglandin G/H synthase 2; experiment: Inhibition of COX-2 (unknown origin)
[9] = molecular target: T2, Seed linoleate 13S-lipoxygenase-1 (Glycine max, UniProt P08170); experiment: Inhibition of soybean LOX-1 using linoleic acid as substrate
T2 sequence (P08170 whole entry): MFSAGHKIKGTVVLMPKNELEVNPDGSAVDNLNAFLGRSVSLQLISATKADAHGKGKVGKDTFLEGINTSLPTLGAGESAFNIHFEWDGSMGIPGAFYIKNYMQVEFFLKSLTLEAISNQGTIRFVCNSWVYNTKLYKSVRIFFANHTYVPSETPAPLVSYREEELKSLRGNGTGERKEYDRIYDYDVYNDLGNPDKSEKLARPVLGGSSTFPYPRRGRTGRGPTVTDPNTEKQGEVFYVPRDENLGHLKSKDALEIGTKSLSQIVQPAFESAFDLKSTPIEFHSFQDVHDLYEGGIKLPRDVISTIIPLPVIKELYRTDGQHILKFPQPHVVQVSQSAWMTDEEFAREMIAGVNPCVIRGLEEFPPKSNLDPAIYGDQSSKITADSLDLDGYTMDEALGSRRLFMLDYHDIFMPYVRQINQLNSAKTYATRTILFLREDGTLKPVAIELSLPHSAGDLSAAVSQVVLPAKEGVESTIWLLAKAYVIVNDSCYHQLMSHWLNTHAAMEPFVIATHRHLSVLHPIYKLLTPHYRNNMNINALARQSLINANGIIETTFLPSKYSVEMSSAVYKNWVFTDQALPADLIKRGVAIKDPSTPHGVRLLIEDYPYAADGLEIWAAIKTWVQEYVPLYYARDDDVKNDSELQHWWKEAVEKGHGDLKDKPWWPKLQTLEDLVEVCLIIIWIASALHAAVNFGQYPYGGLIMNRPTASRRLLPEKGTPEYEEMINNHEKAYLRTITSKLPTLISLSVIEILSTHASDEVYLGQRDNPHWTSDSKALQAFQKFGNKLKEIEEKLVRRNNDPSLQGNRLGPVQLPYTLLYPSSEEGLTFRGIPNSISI

[10] = molecular target: Prostaglandin G/H synthase 1 (Homo sapiens) (UniProt P23219); experiment: Inhibition of human COX-1 at 10 uM relative to control
Sequence of Prostaglandin G/H synthase 1 (Homo sapiens) (P23219 whole entry): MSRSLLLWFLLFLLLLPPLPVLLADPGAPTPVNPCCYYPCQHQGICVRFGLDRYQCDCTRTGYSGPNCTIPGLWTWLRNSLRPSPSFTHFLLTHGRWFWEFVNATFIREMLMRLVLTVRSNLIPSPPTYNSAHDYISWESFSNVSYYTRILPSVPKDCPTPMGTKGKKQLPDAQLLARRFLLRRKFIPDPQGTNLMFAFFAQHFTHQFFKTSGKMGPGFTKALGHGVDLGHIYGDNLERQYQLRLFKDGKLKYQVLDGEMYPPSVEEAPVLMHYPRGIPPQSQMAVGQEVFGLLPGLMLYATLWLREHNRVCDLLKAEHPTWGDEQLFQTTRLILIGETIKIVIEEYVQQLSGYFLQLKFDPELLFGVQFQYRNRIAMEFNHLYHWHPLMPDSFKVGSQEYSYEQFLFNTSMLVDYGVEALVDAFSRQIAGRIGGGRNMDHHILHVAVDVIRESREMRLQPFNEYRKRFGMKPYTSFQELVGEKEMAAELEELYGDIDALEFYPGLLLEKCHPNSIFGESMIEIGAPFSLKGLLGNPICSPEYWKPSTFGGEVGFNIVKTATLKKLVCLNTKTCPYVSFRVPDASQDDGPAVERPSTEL

[11] = Inhibition of human recombinant sPLA2-V

CCN(CC)C(=O)CSc1nnc(C2CCN(C(=O)Nc3ccccc3)CC2)o1
Activity (Mononuclear cell line): 79.5% | IC50 [1]: 15.8 µM

CCn1c(-n2cc(/C=N/N=c3\scc(-c4ccc(Br)cc4)n3-c3ccccc3)c(-c3ccccc3)n2)nc2c1c(=O)n(C)c(=O)n2C
IC50 (HepG2): 18.5 µM | IC50 (Caco-2): 18.5 µM | IC50 (PC-3): 18.5 µM | IC50 (MCF7): 18.5 µM | IC50 (A549): 18.5 µM

CC(Cc1ccc(O)c(O)c1)C(C)Cc1ccc(O)c(O)c1 (stereo not given) [NORDIHYDROGUAIARETIC ACID]
IC50 [2]: 8.5 µM

Cc1cccc(Nc2ccccc2C(=O)O)c1C [MEFENAMIC ACID]
IC50 [3]: 24.8 µM

CN1C(C(=O)Nc2ccccn2)=C(O)c2sccc2S1(=O)=O [TENOXICAM]
IC50 [3]: 49.5 µM

Cc1ccc(NC(=O)CSc2nnc(C3CCN(C(=O)Nc4ccccc4)CC3)o2)cc1C
IC50 [1]: 26.1 µM

CC(C)(C)Nc1c(-c2cc3ccccc3nc2Cl)nc2sccn12
IC50 [3]: ≤ 40 µM

O=c1c(O)c(-c2ccc(O)c(O)c2)oc2cc(O)cc(O)c12 [QUERCETIN]
IC50 [3]: 4.84 µM | Activity (Mononuclear cell line): 4.26%

COc1ccc2cc(C(C)C(=O)ON=C(N)c3ccc(-c4ccccc4)c(-c4ccccc4)c3)ccc2c1 (stereo not given)
IC50 [4]: 0.00177 µM

CN(C)c1ccc(/C=C/C(=O)c2cc(-n3cc(CN4C(=O)C(=O)c5ccccc54)nn3)ccc2O)cc1
IC50 [5]: 1.41 µM

O=C(O)Cc1ccccc1Nc1c(Cl)cccc1Cl [DICLOFENAC]
IC50 [3]: 24.8 µM

O=C(Cc1ccccc1Nc1c(Cl)cccc1Cl)N/N=C1\C(=O)N(Cc2ccccc2)c2ccc(Cl)cc21
IC50 [3]: 4.61 µM

COc1ccc(-c2nnc(N/N=C/c3ccc(F)cc3)nc2-c2ccc(OC)cc2)cc1
IC50 [6]: 124 µM

Cc1ccc(NC(=O)CSc2nnc(C3CCN(C(=O)Nc4ccccc4)CC3)o2)c(C)c1
Activity (Mononuclear cell line): 79.5% | IC50 [1]: 26.1 µM

Cc1ccc(OCc2nnc(SCC(=O)Nc3ccccc3)o2)cc1
IC50 [3]: 21.5 µM

COc1ccc(/C(N)=N/OC(=O)C(C)c2ccc3cc(OC)ccc3c2)cc1 (stereo not given)
IC50 [4]: 0.0064 µM

COc1ccc(/C=C/C(=O)c2cc(-n3cc(CN4C(=O)C(=O)c5ccccc54)nn3)ccc2O)cc1
IC50 [5]: 1.41 µM

CC(=O)Nc1ccc(O)cc1 [ACETAMINOPHEN]
IC50 [3]: 6.52 µM

CC(=O)Oc1ccccc1C(=O)O [ASPIRIN]
IC50 [3]: 4.62 µM

CCc1ccccc1NC(=O)CSc1nnc(C2CCN(C(=O)Nc3ccccc3)CC2)o1
IC50 [1]: 7.15 µM

O=C(CSc1nnc(C2CCN(C(=O)Nc3ccccc3)CC2)o1)Nc1ccccc1
IC50 [1]: 26.1 µM

C=CCc1cc(NC(=O)C23CC4CC(CC(C4)C2)C3)ccc1OC(C)C
IC50 [3]: 1.35 µM

Cc1cc(C)cc(NC(=O)CSc2nnc(C3CCN(C(=O)Nc4ccccc4)CC3)o2)c1
Activity (Mononuclear cell line): 79.5% | IC50 [1]: 26.1 µM

Cc1cccc(C)c1NC(=O)CSc1nnc(C2CCN(C(=O)Nc3ccccc3)CC2)o1
IC50 [1]: 18.4 µM

CCOc1cc(N)n2nc(Nc3cc(OC)ccn3)c(C#N)c2n1
Activity (Rattus norvegicus): 46%

Cc1ccc(Cl)c(Nc2ccccc2C(=O)O)c1Cl [MECLOFENAMATE SODIUM]
IC50 [4]: 0.00564 µM

O=C(Cc1ccccc1Nc1c(Cl)cccc1Cl)N/N=C1\C(=O)N(Cc2ccccc2)c2ccccc21
IC50 [3]: 6.64 µM

Cc1ccc(C)c(NC(=O)CSc2nnc(C3CCN(C(=O)Nc4ccccc4)CC3)o2)c1
IC50 [1]: 26.1 µM

COc1ccc2cc(C(C)C(=O)ON=C(N)c3ccc4c(c3)OCO4)ccc2c1 (stereo not given)
IC50 [4]: 0.0064 µM

COc1ccnc(Nc2nn3c(C)cc(C)nc3c2C#N)c1
IC50 [2]: 5.6 µM | Activity (Rattus norvegicus): 46%

CCOC(=O)c1sc(N/N=C/c2c(F)cccc2Cl)nc1C
IC50 [7]: 0.12 µM

O=C1N/C(=N\c2nnc(-c3ccc(O)cc3)s2)S/C1=C\c1ccccc1
IC50 [8]: 0.07 µM | IC50 [3]: 11 µM

COc1ccc2cc([C@H](C)C(=O)O)ccc2c1 [NAPROXEN]
IC50 [3]: 3.52 µM

O=c1cc(-c2ccccc2)oc2cc(O)c(O)c(O)c12 [BAICALEIN]
IC50 [3]: 22.5 µM

CC(C(=O)O)c1cccc(C(=O)c2ccccc2)c1 (stereo not given) [KETOPROFEN]
IC50 [3]: 24.8 µM

CC(=O)c1cc2ccc(OC/C=C(\C)CC/C=C(\C)CCC=C(C)C)cc2oc1=O
IC50 [9]: 0.68 µM

COc1ccc(Cn2cc(COc3ccc(/C=C4\SC(=O)NC4=O)cc3)nn2)cc1
IC50 [1]: 5.24 µM

CC(c1cc2ccccc2s1)N(O)C(N)=O (stereo not given) [ZILEUTON]
IC50 [3]: 15 µM

CCc1ccc(NC(=O)CSc2nnc(C3CCN(C(=O)Nc4ccccc4)CC3)o2)cc1
IC50 [1]: 26.1 µM

CCOC(=O)c1sc(N/N=C/c2ccccc2)nc1C
IC50 [7]: 0.12 µM

CCCNC(=O)CSc1nnc(C2CCN(C(=O)Nc3ccccc3)CC2)o1
IC50 [1]: 9.32 µM

CN1C(C(=O)Nc2ccccn2)=C(O)c2ccccc2S1(=O)=O [PIROXICAM]
IC50 [3]: 62.6 µM

COc1ccc(-c2nnc(N/N=C/c3ccc4c(c3)OCO4)nc2-c2ccc(OC)cc2)cc1
inhibition [10]: 50%

CCOc1cc(C)nc2c(C#N)c(Nc3cc(OC)ccn3)nn12
Activity (Rattus norvegicus): 46% | IC50 [11]: 1.7 µM

COc1ccc2cc(C(C)C(=O)O/N=C(\N)c3ccc(Cl)cc3)ccc2c1 (stereo not given)
IC50 [4]: 0.0064 µM

Cc1cccc(NC(=O)CSc2nnc(C3CCN(C(=O)Nc4ccccc4)CC3)o2)c1
IC50 [1]: 26.1 µM

O=C(CSc1nnc(C2CCN(C(=O)Nc3ccccc3)CC2)o1)NC1CCCCC1
IC50 [1]: 26.1 µM

O=C(/C=C/c1ccc(Br)cc1)c1cc(-n2cc(CN3C(=O)C(=O)c4ccccc43)nn2)ccc1O
IC50 [5]: 1.41 µM

COc1ccc2cc(C(C)C(=O)O/N=C(\N)c3ccc(OC)c(OC)c3)ccc2c1 (stereo not given)
IC50 [4]: 0.0064 µM

CCn1c(-n2cc(/C=N/N=C3\SCC(=O)N3c3ccccc3)c(-c3ccccc3)n2)nc2c1c(=O)n(C)c(=O)n2C
IC50 (HepG2): 18.5 µM | IC50 (Caco-2): 18.5 µM | IC50 (PC-3): 18.5 µM | IC50 (MCF7): 18.5 µM | IC50 (A549): 18.5 µM
